Results reported in patent publication US9981975B2, “Pyrrolotriazine compounds as tam inhibitors” (Incyte Corporation, priority 2016, dated 2018).

Tests used:
Format in all cases: biochemical
c-Mer = c-Mer (Homo sapiens (Human), UniProt Q12866); test: TAM Enzymatic Assay (HTRF), Mer; conditions: 60 min, room temperature
Protocol: The kinase assay buffer contained 50 mM HEPES, pH7.5, 10 mM MgCl2, 1 mM EGTA, 0.01% NP-40 and 2 mM DTT. 0.1 ul test compounds dissolved in DMSO were transferred from compound plates to white 384-well assay plates (Greiner […] plates). […] 4 ul enzyme solution (or assay buffer for the enzyme blank) was added to the appropriate wells in each plate, and then 4 ul/well substrate solution was added to initiate the reaction. The plate was protected from light and incubated at room temperature for 60 min. […] The plate was incubated for 1 h at room temperature, and HTRF (homogenous time resolved fluorescence) signal was measured on a PHERAstar FS plate reader (BMG labtech). Percentage of inhibition was calculated for each concentration and IC50 value was generated from curve fitting with GraphPad Prism software.

phosphor-Axl = phosphor-Axl (Homo sapiens (Human), UniProt P30530); test: TAM Enzymatic Assay (HTRF), Axl; conditions: recombinant autophosphorylated Axl, 60 min, room temperature
Sequence of phosphor-Axl (P30530 26-894): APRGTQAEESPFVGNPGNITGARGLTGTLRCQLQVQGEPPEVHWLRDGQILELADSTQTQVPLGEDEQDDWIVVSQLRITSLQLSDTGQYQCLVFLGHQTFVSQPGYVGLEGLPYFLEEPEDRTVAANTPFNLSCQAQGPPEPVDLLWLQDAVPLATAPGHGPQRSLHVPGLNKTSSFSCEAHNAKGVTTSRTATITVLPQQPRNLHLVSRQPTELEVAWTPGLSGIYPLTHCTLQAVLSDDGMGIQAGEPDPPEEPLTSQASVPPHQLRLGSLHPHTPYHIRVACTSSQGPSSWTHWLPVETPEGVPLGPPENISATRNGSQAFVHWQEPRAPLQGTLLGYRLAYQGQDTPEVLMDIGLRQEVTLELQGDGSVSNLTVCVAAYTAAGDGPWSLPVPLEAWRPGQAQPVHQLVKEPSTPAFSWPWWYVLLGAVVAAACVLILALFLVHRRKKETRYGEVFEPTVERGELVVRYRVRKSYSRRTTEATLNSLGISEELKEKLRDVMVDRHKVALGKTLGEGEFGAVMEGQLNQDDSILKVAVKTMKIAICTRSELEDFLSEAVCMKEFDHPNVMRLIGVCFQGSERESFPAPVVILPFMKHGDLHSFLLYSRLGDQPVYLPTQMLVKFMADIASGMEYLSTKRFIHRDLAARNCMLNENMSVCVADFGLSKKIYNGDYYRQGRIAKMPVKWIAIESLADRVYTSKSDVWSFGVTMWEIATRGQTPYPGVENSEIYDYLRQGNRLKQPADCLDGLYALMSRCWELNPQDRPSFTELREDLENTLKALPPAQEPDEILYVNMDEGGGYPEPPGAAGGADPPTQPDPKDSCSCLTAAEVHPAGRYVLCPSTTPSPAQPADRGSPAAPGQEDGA

Tyro3 = Tyro3 (Homo sapiens (Human), UniProt Q06418); test: TAM Enzymatic Assay (HTRF), Tyro3; conditions: Tyro3, 60 min, room temperature
Sequence of Tyro3 (Q06418 41-890): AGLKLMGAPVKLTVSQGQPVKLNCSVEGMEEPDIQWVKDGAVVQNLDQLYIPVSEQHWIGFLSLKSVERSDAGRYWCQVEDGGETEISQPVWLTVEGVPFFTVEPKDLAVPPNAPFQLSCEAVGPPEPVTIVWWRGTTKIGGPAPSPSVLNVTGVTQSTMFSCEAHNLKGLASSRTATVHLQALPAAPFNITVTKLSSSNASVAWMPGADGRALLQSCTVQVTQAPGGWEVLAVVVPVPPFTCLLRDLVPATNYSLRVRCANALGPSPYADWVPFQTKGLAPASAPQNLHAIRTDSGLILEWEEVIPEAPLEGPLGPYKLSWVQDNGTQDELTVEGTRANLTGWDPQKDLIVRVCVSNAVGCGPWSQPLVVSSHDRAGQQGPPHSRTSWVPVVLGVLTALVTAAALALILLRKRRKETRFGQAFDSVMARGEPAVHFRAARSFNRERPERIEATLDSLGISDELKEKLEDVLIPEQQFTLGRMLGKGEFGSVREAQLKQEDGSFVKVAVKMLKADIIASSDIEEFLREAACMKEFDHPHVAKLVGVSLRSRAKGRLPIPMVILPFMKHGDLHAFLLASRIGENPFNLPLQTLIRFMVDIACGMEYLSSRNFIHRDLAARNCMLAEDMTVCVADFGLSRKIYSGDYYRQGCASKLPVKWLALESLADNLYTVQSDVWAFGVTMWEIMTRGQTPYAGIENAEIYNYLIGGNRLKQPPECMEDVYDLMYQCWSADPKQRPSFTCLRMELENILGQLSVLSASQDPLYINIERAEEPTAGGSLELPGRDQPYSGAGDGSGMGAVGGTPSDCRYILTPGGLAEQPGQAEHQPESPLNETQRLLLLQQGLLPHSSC
Outline: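 Reactions ran 60 min at room temperature, protected from light, started by substrate addition to enzyme plus DMSO compound, in pH 7.5 HEPES buffer with 10 mM MgCl2, 1 mM EGTA, 0.01% NP-40, 2 mM DTT.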

Sequence of c-Mer (Q12866 21-999): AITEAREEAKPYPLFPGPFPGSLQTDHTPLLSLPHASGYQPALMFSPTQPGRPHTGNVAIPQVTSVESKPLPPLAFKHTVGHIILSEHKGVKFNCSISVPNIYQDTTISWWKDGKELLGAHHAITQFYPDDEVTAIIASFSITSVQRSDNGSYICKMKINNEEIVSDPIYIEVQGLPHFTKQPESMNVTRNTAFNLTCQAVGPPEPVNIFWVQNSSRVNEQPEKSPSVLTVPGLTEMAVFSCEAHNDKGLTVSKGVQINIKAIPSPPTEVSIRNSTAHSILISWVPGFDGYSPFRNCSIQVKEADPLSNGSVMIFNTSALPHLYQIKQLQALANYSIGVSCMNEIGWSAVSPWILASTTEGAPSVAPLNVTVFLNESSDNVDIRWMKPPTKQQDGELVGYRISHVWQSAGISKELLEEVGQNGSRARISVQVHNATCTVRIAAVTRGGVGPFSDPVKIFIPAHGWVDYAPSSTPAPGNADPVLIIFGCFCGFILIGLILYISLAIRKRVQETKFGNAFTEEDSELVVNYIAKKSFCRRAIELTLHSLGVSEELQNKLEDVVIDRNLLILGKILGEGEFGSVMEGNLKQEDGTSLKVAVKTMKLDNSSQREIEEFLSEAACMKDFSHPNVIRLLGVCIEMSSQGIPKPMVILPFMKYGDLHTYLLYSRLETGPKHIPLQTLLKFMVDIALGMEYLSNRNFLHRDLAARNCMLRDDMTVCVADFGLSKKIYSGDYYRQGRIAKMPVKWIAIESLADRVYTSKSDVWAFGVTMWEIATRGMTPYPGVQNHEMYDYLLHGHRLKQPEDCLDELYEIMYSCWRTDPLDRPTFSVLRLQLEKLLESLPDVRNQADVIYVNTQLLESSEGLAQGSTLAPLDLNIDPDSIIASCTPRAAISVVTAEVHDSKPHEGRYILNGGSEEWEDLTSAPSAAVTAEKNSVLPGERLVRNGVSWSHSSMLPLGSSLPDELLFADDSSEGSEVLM

Nc1ncnn2c1c(-c1ccc(NC(=O)c3cccn(-c4ccc(F)cc4)c3=O)cc1F)cc2[C@H]1CC[C@@H](O)CC1 [Example 19, N-{4-[4-Amino-7-(cis-4-hydroxycyclohexyl)pyrrolo[2,1-f][1,2,4]triazin-5-yl]-3-fluorophenyl}-1-(4-fluorophenyl)-2-oxo-1,2-dihydropyridine-3-carboxamide]
IC50 (c-Mer): ≤ 5 nM | IC50 (phosphor-Axl): ≤ 5 nM | IC50 (Tyro3): ≤ 5 nM

N#C[C@H]1CC[C@@H](c2cc(-c3ccc(NC(=O)c4cccn(-c5ccccc5)c4=O)cc3)c3c(N)ncnn32)CC1 [Example 28, N-{4-[4-Amino-7-(cis-4-cyanocyclohexyl)pyrrolo[2,1-f][1,2,4]triazin-5-yl]phenyl}-2-oxo-1-phenyl-1,2-dihydropyridine-3-carboxamide]
IC50 (c-Mer): ≤ 5 nM | IC50 (phosphor-Axl): ≤ 5 nM | IC50 (Tyro3): > 100 nM

COC(=O)N1CCC(c2cc(-c3ccc(NC(=O)c4cccn(-c5ccccc5)c4=O)cc3F)c3c(N)ncnn23)CC1 [Example 38, Methyl 4-[4-amino-5-(2-fluoro-4-{[(2-oxo-1-phenyl-1,2-dihydropyridin-3-yl)carbonyl]amino}phenyl)pyrrolo[2,1-f][1,2,4]triazin-7-yl]piperidine-1-carboxylate]
IC50 (c-Mer): ≤ 5 nM | IC50 (phosphor-Axl): ≤ 5 nM | IC50 (Tyro3): 10 to 100 nM

Cc1c(C(F)F)cc(C(=O)Nc2ccc(-c3cc(C4CCN(C(=O)C(C)C)CC4)n4ncnc(N)c34)cc2)c(=O)n1-c1ccccn1 [Example 127, N-(4-(4-Amino-7-(1-isobutyrylpiperidin-4-yl)pyrrolo[2,1-f][1,2,4]triazin-5-yl)phenyl)-5-(difluoromethyl)-6-methyl-2-oxo-2H-[1,2′-bipyridine]-3-carboxamide]
IC50 (c-Mer): ≤ 5 nM | IC50 (phosphor-Axl): ≤ 5 nM | IC50 (Tyro3): > 100 nM

CN(C)C(=O)N1CCC(c2cc(-c3ccc(NC(=O)c4cccn(-c5ccccc5)c4=O)cc3F)c3c(N)ncnn23)CC1 [Example 46, N-[4-(4-Amino-7-{1-[(dimethylamino)carbonyl]piperidin-4-yl}pyrrolo[2,1-f][1,2,4]triazin-5-yl)-3-fluorophenyl]-2-oxo-1-phenyl-1,2-dihydropyridine-3-carboxamide]
IC50 (c-Mer): ≤ 5 nM | IC50 (phosphor-Axl): ≤ 5 nM | IC50 (Tyro3): 10 to 100 nM

Cc1c(-c2ncccn2)cc(C(=O)Nc2ccc(-c3cc(C4CCN(C)CC4)n4ncnc(N)c34)cc2)c(=O)n1-c1ccccc1 [Example 109]
IC50 (c-Mer): ≤ 5 nM | IC50 (phosphor-Axl): ≤ 5 nM | IC50 (Tyro3): 5 to 10 nM

CC(C)C(=O)N1CCC(c2cc(-c3ccc(NC(=O)c4cc5c(n(-c6cncc(F)c6)c4=O)CCCC5=O)cc3)c3c(N)ncnn23)CC1 [Example 113, N-(4-(4-Amino-7-(1-isobutyrylpiperidin-4-yl)pyrrolo[1,2-f][1,2,4]triazin-5-yl)phenyl)-1-(5-fluoropyridin-3-yl)-2,5-dioxo-1,2,5,6,7,8-hexahydroquinoline-3-carboxamide]
IC50 (c-Mer): ≤ 5 nM | IC50 (phosphor-Axl): ≤ 5 nM | IC50 (Tyro3): 10 to 100 nM

Nc1ncnn2c(C3CCN(CCO)CC3)cc(-c3ccc(NC(=O)c4cccn(-c5ccccc5)c4=O)cc3F)c12 [Example 54]
IC50 (c-Mer): ≤ 5 nM | IC50 (phosphor-Axl): ≤ 5 nM | IC50 (Tyro3): 10 to 100 nM

CC(C)n1cc(C(=O)Nc2ccc(-c3cc(C4CCN(C)CC4)n4ncnc(N)c34)cc2)c(=O)n(-c2ccccc2)c1=O [Example 64, N-(4-(4-Amino-7-(1-methylpiperidin-4-yl)pyrrolo[1,2-f][1,2,4]triazin-5-yl)phenyl)-1-isopropyl-2,4-dioxo-3-phenyl-1,2,3,4-tetrahydropyrimidine-5-carboxamide]
IC50 (c-Mer): ≤ 5 nM | IC50 (phosphor-Axl): ≤ 5 nM | IC50 (Tyro3): 10 to 100 nM

Cc1c(-c2ncco2)cc(C(=O)Nc2ccc(-c3cc(C4CCN(C(=O)C(C)C)CC4)n4ncnc(N)c34)cc2)c(=O)n1-c1ccccn1 [Example 126, N-(4-(4-Amino-7-(1-isobutyrylpiperidin-4-yl)pyrrolo[2,1-f][1,2,4]triazin-5-yl)phenyl)-6-methyl-5-(oxazol-2-yl)-2-oxo-2H-[1,2′-bipyridine]-3-carboxamide]
IC50 (c-Mer): ≤ 5 nM | IC50 (phosphor-Axl): ≤ 5 nM | IC50 (Tyro3): > 100 nM

Cc1c(-c2cscn2)cc(C(=O)Nc2ccc(-c3cc(C4CCN(C(=O)C(C)C)CC4)n4ncnc(N)c34)cc2)c(=O)n1-c1cncc(F)c1 [Example 103, N-(4-(4-Amino-7-(1-isobutyrylpiperidin-4-yl)pyrrolo[2,1-f][1,2,4]triazin-5-yl)phenyl)-5′-fluoro-6-methyl-2-oxo-5-(thiazol-4-yl)-2H-[1,3′-bipyridine]-3-carboxamide]
IC50 (c-Mer): ≤ 5 nM | IC50 (phosphor-Axl): ≤ 5 nM | IC50 (Tyro3): 10 to 100 nM

CCN(C)C(=O)N1CCC(c2cc(-c3ccc(NC(=O)c4cn(C(C)C)c(=O)n(-c5ccccc5)c4=O)cc3)c3c(N)ncnn23)CC1 [Example 62, N-(4-(4-Amino-7-(1-(ethyl(methyl)carbamoyl)piperidin-4-yl)pyrrolo[1,2-f][1,2,4]triazin-5-yl)phenyl)-1-isopropyl-2,4-dioxo-3-phenyl-1,2,3,4-tetrahydropyrimidine-5-carboxamide]
IC50 (c-Mer): ≤ 5 nM | IC50 (phosphor-Axl): ≤ 5 nM | IC50 (Tyro3): 10 to 100 nM

Nc1ncnn2c(C3CCOCC3)cc(-c3ccc(NC(=O)c4cccn(-c5ccc(F)cc5)c4=O)cc3)c12 [Example 14, N-{4-[4-Amino-7-(tetrahydro-2H-pyran-4-yl)pyrrolo[2,1-f][1,2,4]triazin-5-yl]phenyl}-1-(4-fluorophenyl)-2-oxo-1,2-dihydropyridine-3-carboxamide]
IC50 (c-Mer): ≤ 5 nM | IC50 (phosphor-Axl): ≤ 5 nM | IC50 (Tyro3): 10 to 100 nM

Cc1c(CC#N)cc(C(=O)Nc2ccc(-c3cc(C4CCN(C(=O)C(C)C)CC4)n4ncnc(N)c34)cc2)c(=O)n1-c1ccccn1 [Example 122, N-(4-(4-Amino-7-(1-isobutyrylpiperidin-4-yl)pyrrolo[1,2-f][1,2,4]triazin-5-yl)phenyl)-5-(cyanomethyl)-6-methyl-2-oxo-1-(pyridin-2-yl)-1,2-dihydropyridine-3-carboxamide]
IC50 (c-Mer): ≤ 5 nM | IC50 (phosphor-Axl): ≤ 5 nM | IC50 (Tyro3): > 100 nM

CCc1cc(-c2ccc(NC(=O)c3cccn([C@H](C)CO)c3=O)cc2)c2c(N)ncnn12 [Example 3, N-[4-(4-Amino-7-ethylpyrrolo[2,1-f][1,2,4]triazin-5-yl)phenyl]-1-[(1R)-2-hydroxy-1-methylethyl]-2-oxo-1,2-dihydropyridine-3-carboxamide]
IC50 (c-Mer): > 100 nM | IC50 (phosphor-Axl): > 100 nM | IC50 (Tyro3): > 100 nM

CN(C)C(=O)N1CCC(c2cc(-c3ccc(NC(=O)c4cccn(-c5ccc(F)cc5)c4=O)cc3F)c3c(N)ncnn23)CC1 [Example 47, N-[4-(4-Amino-7-{1-[(dimethylamino)carbonyl]piperidin-4-yl}pyrrolo[2,1-f][1,2,4]triazin-5-yl)-3-fluorophenyl]-1-(4-fluorophenyl)-2-oxo-1,2-dihydropyridine-3-carboxamide]
IC50 (c-Mer): ≤ 5 nM | IC50 (phosphor-Axl): ≤ 5 nM | IC50 (Tyro3): 10 to 100 nM

N#C[C@H]1CC[C@@H](c2cc(-c3ccc(NC(=O)c4cccn(-c5ccc(F)cc5)c4=O)cc3)c3c(N)ncnn32)CC1 [Example 29, N-{4-[4-Amino-7-(cis-4-cyanocyclohexyl)pyrrolo[2,1-f][1,2,4]triazin-5-yl]phenyl}-1-(4-fluorophenyl)-2-oxo-1,2-dihydropyridine-3-carboxamide]
IC50 (c-Mer): ≤ 5 nM | IC50 (phosphor-Axl): ≤ 5 nM | IC50 (Tyro3): 10 to 100 nM

CC(C)C(=O)N1CCC(c2cc(-c3ccc(NC(=O)c4cc(C#C[C@H](C)O)cn(-c5ccccc5)c4=O)cc3)c3c(N)ncnn23)CC1 [Example 120, (S)—N-(4-(4-Amino-7-(1-isobutyrylpiperidin-4-yl)pyrrolo[2,1-f][1,2,4]triazin-5-yl)phenyl)-5-(3-hydroxybut-1-yn-1-yl)-2-oxo-1-phenyl-1,2-dihydropyridine-3-carboxamide]
IC50 (c-Mer): ≤ 5 nM | IC50 (phosphor-Axl): ≤ 5 nM | IC50 (Tyro3): > 100 nM

CC(C)C(=O)N1CCC(c2cc(-c3ccc(NC(=O)c4cn(C5CC5)c(=O)n(-c5ccccc5)c4=O)cc3)c3c(N)ncnn23)CC1 [Example 139, N-(4-(4-Amino-7-(1-isobutyrylpiperidin-4-yl)pyrrolo[2,1-f][1,2,4]triazin-5-yl)phenyl)-1-cyclopropyl-2,4-dioxo-3-phenyl-1,2,3,4-tetrahydropyrimidine-5-carboxamide]
IC50 (c-Mer): ≤ 5 nM | IC50 (phosphor-Axl): ≤ 5 nM | IC50 (Tyro3): > 100 nM

COCc1c(Br)cc(C(=O)Nc2ccc(-c3cc(C4CCN(C(=O)C(C)C)CC4)n4ncnc(N)c34)cc2)c(=O)n1-c1ccccc1 [Example 136, N-(4-(4-Amino-7-(1-isobutyrylpiperidin-4-yl)pyrrolo[2,1-f][1,2,4]triazin-5-yl)phenyl)-5-bromo-6-(methoxymethyl)-2-oxo-1-phenyl-1,2-dihydropyridine-3-carboxamide]
IC50 (c-Mer): ≤ 5 nM | IC50 (phosphor-Axl): ≤ 5 nM | IC50 (Tyro3): > 100 nM

CC(C)C(=O)N1CCC(c2cc(-c3ccc(NC(=O)c4cn(C(C)C)c(=O)n(-c5ccccc5)c4=O)cc3)c3c(N)ncnn23)CC1 [Example 63, N-(4-(4-Amino-7-(1-isobutyrylpiperidin-4-yl)pyrrolo[1,2-f][1,2,4]triazin-5-yl)phenyl)-1-isopropyl-2,4-dioxo-3-phenyl-1,2,3,4-tetrahydropyrimidine-5-carboxamide]
IC50 (c-Mer): ≤ 5 nM | IC50 (phosphor-Axl): ≤ 5 nM | IC50 (Tyro3): 10 to 100 nM

CS(=O)(=O)N1CCC(c2cc(-c3ccc(NC(=O)c4cccn(-c5ccc(F)cc5)c4=O)cc3F)c3c(N)ncnn23)CC1 [Example 43]
IC50 (c-Mer): ≤ 5 nM | IC50 (phosphor-Axl): ≤ 5 nM | IC50 (Tyro3): 10 to 100 nM
